Results: patent publication US5543420A, “Quinoline-3-acetic acid derivative, process for production thereof and use thereof” (The Green Cross Corporation, priority 1993, dated 1996)

Columns and labels:
[1] = test system: sorbitol accumulation in tissues (erythrocytes, sciatic nerve, lens); experiment: Inhibitory action on sorbitol accumulation in tissues of rats with experimental diabetes; type: in vivo, Sprague-Dawley rats; details: streptozotocin rats, 3 hours after final administration, control taken as 100%
Procedure: Sprague-Dawley rats (male, 6 weeks old, 5-6 per group) were fasted for 18 hours and injected with streptozotocin (SIGMA, 60 mg/kg) via the tail vein under etherization to prepare rats with diabetes.
[…] During the administrations, the rats were raised under free access to feed and water and the sorbitol content in the tissues (erythrocytes, sciatic nerve, lens) was determined 3 hours after the final administration according to the enzyme method of H. Y. Bergmeyer et al. [Methods of Enzymatic Analysis, vol. 3, 1323-1330 (1974)] with the use of SDH (sorbitol dehydrogenase) and NAD (β-nicotinamide adenine dinucleotide). The results are expressed in percent (%) relative to the value of a control group administered with 0.5% carboxymethylcellulose solution (solvent) instead of the compound, which was taken as 100%.

aldose reductase = target: T1, aldose reductase (Sus scrofa, UniProt P80276); experiment: Aldose reductase inhibitory action; type: biochemical; details: swine lens enzyme, diglyceraldehyde substrate 3 mM, 0.1 mM NADPH, pH 6.2, 25° C., 2 minutes; read-out: IC50 (concentration inhibiting the aldose reductase activity by 50%)
T1 construct: An aldose reductase enzyme standard product was prepared from swine lens; from tissue; host or cells: swine lens
Procedure: An aldose reductase enzyme standard product was prepared from swine lens according to the method of S. Hayman et al. [Journal of Biological Chemistry, 240, 877-882 (1965)]. That is, swine lenses freeze-stored at -80° C. were homogenized with distilled water and cetrifuged at 10,000 g for 15 minutes. The supernatant was prepared into a 40% ammonium sulfate solution and subjected to cetrifugation at 10,000 g for 10 minutes. The supernatant obtained was dialyzed overnight against a 0.05M sodium chloride solution to give a dialyzed solution, which was used as an enzyme standard product.
The activity of aldose reductase was determined by the above-mentioned method of S. Hayman et al. That is, the above-mentioned enzyme solution (25 μl) and a drug solution (25 μl) in 1% DMSO at various concentrations were added to a 40 mM phosphate buffer (200 μl, pH 6.2) containing final concentrations of 0.4M lithium sulfate, 0.1 mM NADPH (reduced type nicotinamide adenine dinucleotide phosphate) and 3 mM diglyceraldehyde as a substrate. The mixture was allowed to react at 25° C. for 2 minutes and the changes in absorbance at 340 nm was determined with COBAS FARA II (manufactured by Roche).
The changes in absorbance when 1% DMSO was added instead of the drug solution was taken as 100%, based on which 50% inhibition concentration (IC50) was calculated and shown in Table 1.
The test drug number indicates the example number to be mentioned later. Compound A is 3,4-dihydro-2,8-diisopropyl-3-thioxo-2H-1,4-benzoxazine-4-acetic acid disclosed in Japanese Patent Unexamined Publication 107970/1988.

Normal ICR mice = details: mouse, in vivo
Procedure: The acute toxicity (safety) of the compound of the present invention was confirmed by the following method.
Normal ICR mice (male, 7 weeks old, 5 per group) were fasted for 18 hours and the compounds (300 mg/kg) of Example 11 and Example 20 were orally administered as 0.5% carboxymethylcellulose suspensions. To the control group, a 0.5% carboxymethylcellulose solution alone was orally administered and observation was continued for 14 days thereafter, during which period the mice were allowed to take feed and water freely.

[2] = 30 mg/kg oral at 4, 8 and 24 hours
[3] = 10 mg/kg oral at 4, 8 and 24 hours

Row | Compound | Sorbitol accumulation, erythrocytes [1, 2] [%] | Sorbitol accumulation, lens [1, 2] [%] | Sorbitol accumulation, sciatic nerve [1, 2] [%] | IC50 (aldose reductase) [nM] | Sorbitol accumulation, erythrocytes [1, 3] [%] | Sorbitol accumulation, lens [1, 3] [%] | Sorbitol accumulation, sciatic nerve [1, 3] [%] | death of the mice (Normal ICR mice)
1 | CC(C)c1cccc2c1OC(C(C)C)C(=S)N2CC(=O)O (stereo not shown) [Compound A, 3,4-dihydro-2,8-diisopropyl-3-thioxo-2H-1,4-benzoxazine-4-acetic acid, reference compound] | 53.7 | 87.3 | 54.9 | – | – | – | – | –
2 | O=C(O)CC1Cc2ccccc2N(Cc2nc3c(F)c(F)cc(F)c3s2)C1=O (stereo not shown) [Example 11, 1-(4,5,7-Trifluorobenzothiazol-2-Yl)Methyl-2-Oxo-1,2,3,4-Tetrahydro-1H-Quinolin-3-Ylacetic Acid] | – | – | – | 9 | 15.6 | 50.7 | 0.0 | no case of death
3 | O=C(O)CC1Cc2ccccc2N(Cc2nc3c(F)c(F)ccc3s2)C1=O (stereo not shown) [Example 12, 1-(4,5-difluorobenzothiazol-2-yl)methyl-2-oxo-1,2,3,4-tetrahydro-1H-quinolin-3-ylacetic acid] | – | – | – | 13 | 0.0 | 78.8 | 0.0 | –
4 | Cc1ccc2c(c1)CC(CC(=O)O)C(=O)N2Cc1nc2c(F)c(F)cc(F)c2s1 (stereo not shown) [Example 17, 1-(4,5,7-trifluorobenzothiazol-2-yl)methyl-6-methyl-2-oxo-1,2,3,4-tetrahydro-1H-quinolin-3-ylacetic acid] | – | – | – | 11 | 31.2 | 46.9 | 0.5 | –
5 | O=C(O)CC1Cc2cc(F)ccc2N(Cc2nc3c(F)c(F)cc(F)c3s2)C1=O (stereo not shown) [Example 19, 6-fluoro-1-(4,5,7-trifluorobenzothiazol-2-yl)methyl-2-oxo-1,2,3,4-tetrahydro-1H-quinolin-3-ylacetic acid] | – | – | – | 12 | – | – | – | –
6 | O=C(O)Cc1cc2ccccc2n(Cc2nc3c(F)c(F)cc(F)c3s2)c1=O [Example 20, 1-(4,5,7-trifluorobenzothiazol-2-yl)methyl-2-oxo-1,2-dihydro-1H-quinolin-3-ylacetic acid] | – | – | – | 9.4 | – | – | – | no case of death
